Assay results taken from patent publication US9193746B2, “Luminescent metal complexes and associated technology” (BIOTIUM, INC., priority 2006, dated 2015).

Test system: electrophoretically separated proteins (Precision Plus Protein Standard) in a SDS-PAGE gel
Assay: Detection of electrophoretically separated proteins in a SDS-PAGE gel by luminescent staining
Details: for Staining of proteins in gel (yes/no): Example 18, FIG. 4: 1.5 μM complex, 30% MeOH, 14% acetic acid, room temperature, 90 minutes
Protocol: A gel preparation procedure is now described. Five μL of an unstained Precision Plus Protein Standard (Catalog No. 161-0363 from Bio-Rad Laboratories (Hercules, Calif.) (hereinafter, “Bio-Rad”)) were separated on the left column of a polyacrylamide pre-cast gel (Catalog No. 161-1176, a Ready Gel from Bio-Rad) in running buffer containing 20 mM glycine, 2.5 mM Tris and 0.1% SDS, using a standard SDS-PAGE procedure. Five 5 μL of the same standard diluted five times were separated on the right column of the polyacrylamide pre-cast gel under the same conditions.
The foregoing procedure was used to prepare one gel, which was further processed as described below using a particular staining solution. Separately, the same procedure was used to prepare another gel, which was further processed as described below using a different staining solution.
At the end of each of these periods, the gel was taken out of the solution, illuminated, and photographed, and if a further period remained, returned to the solution until the end of that further period. A UV transilluminator (300-nm wavelength) was used to illuminate the gel and Polaroid 667 black-and-white film was used to photograph the gel. The gel was not destained before being photographed.
A gel was prepared according to the gel preparation procedure described in connection with Example 15. The gel was then processed as now described. The gel was placed in a fixation solution comprising 50% MeOH and 7% acetic acid for 30 minutes to fix the gel. […] The gel was not destained before being photographed.
A gel was prepared according to the gel preparation procedure described in connection with Example 15. The gel was then processed as now described. The gel was placed in a fixation solution comprising 50% MeOH and 7% acetic acid for 1 hour to fix the gel. […] The gel was not destained before being photographed.
Three gels were prepared, each according to the gel preparation procedure described in connection with Example 15. One of the gels was stained using a staining solution comprising 1.5 μM of [Ru(bpy)3]Cl2 (Aldrich, Milwaukee, Wis.), wherein “bpy” is unsubstituted 2,2′-bipyridine, 30% MeOH and 14% acetic acid. Another of the gels was stained using a staining solution comprising 1.5 μM of [Ru(1,10-phenanthroline)3]Cl2 (Aldrich, Milwaukee, Wis.), 30% MeOH and 14% acetic acid. […] Each gel was stained by incubating it in the appropriate staining solution at room temperature for 90 minutes, whereupon each gel was taken out of the staining solution, illuminated and photographed in the manner described in connection with Example 15. No gel was destained before being photographed.

Molecule	Staining of proteins in gel (yes/no) (not destained)	Protein staining in gel (sensitivity, background) (Example 17, FIG. 3: fixed gel, 2 μM complex, 1% ethanol in H2O, overnight, not destained)	Protein staining compared with SYPRO Ruby stain (Example 17, FIG. 3 versus FIG. 1, without destaining)
[Cl][Ru][Cl].c1cnc2c(c1)ccc1cccnc12.c1cnc2c(c1)ccc1cccnc12.c1cnc2c(c1)ccc1cccnc12 [[Ru(1,10-phenanthroline)3]Cl2]	failed to stain proteins	–	–
[Cl][Ru][Cl].c1ccc(-c2ccccn2)nc1.c1ccc(-c2ccccn2)nc1.c1ccc(-c2ccccn2)nc1 [[Ru(bpy)3]Cl2]	failed to stain proteins	–	–
Re[(bathocuproin disulfonate)(CO)3(4-phenylpyridine)]^−Na^+ [Complex No. 2]	–	good sensitivity and relatively low background	performing at least as well as, if not outperforming, SYPRO Ruby
